Source: BindingDB's records for doi:10.1021/jm00018a020 (Centre De Recherche Pierre Fabre, 1995)
pKi: −log10 of the molar value.

Biological target: 5-hydroxytryptamine receptor 1B (Homo sapiens) (UniProt P28222)
Experiment: Binding affinity for cloned human 5-hydroxytryptamine 1D receptor beta

Sequence of 5-hydroxytryptamine receptor 1B (Homo sapiens) (P28222 whole entry, looked up): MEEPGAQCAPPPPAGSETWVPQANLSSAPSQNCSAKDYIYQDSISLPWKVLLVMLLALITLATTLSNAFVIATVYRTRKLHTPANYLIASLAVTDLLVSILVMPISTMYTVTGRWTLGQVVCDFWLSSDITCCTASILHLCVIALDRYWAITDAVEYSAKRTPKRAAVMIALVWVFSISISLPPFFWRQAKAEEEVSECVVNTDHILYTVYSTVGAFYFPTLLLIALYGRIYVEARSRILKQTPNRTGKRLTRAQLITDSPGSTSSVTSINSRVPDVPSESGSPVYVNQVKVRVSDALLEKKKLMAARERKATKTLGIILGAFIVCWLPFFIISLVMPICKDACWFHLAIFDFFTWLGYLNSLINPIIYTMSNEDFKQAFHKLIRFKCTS

Row | SMILES | pKi
1 | CN(C)S(=O)(=O)Nc1ccc(N2CCN(C(=O)COc3ccc4[nH]cc(CCN)c4c3)CC2)cc1 | 8.72
2 | N#Cc1ccccc1N1CCN(C(=O)COc2ccc3[nH]cc(CCN)c3c2)CC1 [2-(4-{2-[3-(2-Amino-ethyl)-1H-indol-5-yloxy]-acetyl}-piperazin-1-yl)-benzonitrile] | 9.41
3 | NCCc1c[nH]c2ccc(OCC(=O)N3CCN(c4ccccc4)CC3)cc12 [2-[3-(2-Amino-ethyl)-1H-indol-5-yloxy]-1-(4-phenyl-piperazin-1-yl)-ethanone] | 9.40
4 | NCCc1c[nH]c2ccc(OCC(=O)N3CCN(c4ccccc4CN)CC3)cc12 [2-[3-(2-Amino-ethyl)-1H-indol-5-yloxy]-1-[4-(2-aminomethyl-phenyl)-piperazin-1-yl]-ethanone] | 8.74
5 | NCCc1c[nH]c2ccc(OCC(=O)N3CCN(c4ccccc4[N+](=O)[O-])CC3)cc12 [2-[3-(2-Amino-ethyl)-1H-indol-5-yloxy]-1-[4-(2-nitro-phenyl)-piperazin-1-yl]-ethanone] | 9.52
6 | NCCc1c[nH]c2ccc(OCC(=O)N3CCN(c4ccc(N)cc4)CC3)cc12 [2-[3-(2-Amino-ethyl)-1H-indol-5-yloxy]-1-[4-(4-amino-phenyl)-piperazin-1-yl]-ethanone] | 8.80
7 | NCCc1c[nH]c2ccc(OCC(=O)N3CCN(c4ccc(CN)cc4)CC3)cc12 [2-[3-(2-Amino-ethyl)-1H-indol-5-yloxy]-1-[4-(4-aminomethyl-phenyl)-piperazin-1-yl]-ethanone] | 8.60
8 | NCCc1c[nH]c2ccc(OCC(=O)N3CCN(c4ccc([N+](=O)[O-])cc4)CC3)cc12 [2-[3-(2-Amino-ethyl)-1H-indol-5-yloxy]-1-[4-(4-nitro-phenyl)-piperazin-1-yl]-ethanone] | 9.08
9 | NCCc1c[nH]c2ccc(OCCCC(=O)N3CCN(c4ccc([N+](=O)[O-])cc4)CC3)cc12 [4-[3-(2-Amino-ethyl)-1H-indol-5-yloxy]-1-[4-(4-nitro-phenyl)-piperazin-1-yl]-butan-1-one] | 8.30
10 | NCCc1c[nH]c2ccc(OCCCCC(=O)N3CCN(c4ccc([N+](=O)[O-])cc4)CC3)cc12 [5-[3-(2-Amino-ethyl)-1H-indol-5-yloxy]-1-[4-(4-nitro-phenyl)-piperazin-1-yl]-pentan-1-one] | 8.74
11 | NCCc1c[nH]c2ccc(OCCCCCC(=O)N3CCN(c4ccc(N)cc4)CC3)cc12 [6-[3-(2-Amino-ethyl)-1H-indol-5-yloxy]-1-[4-(4-amino-phenyl)-piperazin-1-yl]-hexan-1-one] | 9.51
12 | NCCc1c[nH]c2ccc(OCCCCCC(=O)N3CCN(c4ccc([N+](=O)[O-])cc4)CC3)cc12 [6-[3-(2-Amino-ethyl)-1H-indol-5-yloxy]-1-[4-(4-nitro-phenyl)-piperazin-1-yl]-hexan-1-one] | 9.33
13 | CN(C)CCc1c[nH]c2ccc(C[C@H]3COC(=O)N3)cc12 [(S)-4-((3-(2-(dimethylamino)ethyl)-1H-indol-5-yl)methyl)oxazolidin-2-one] | 8.40
14 | CS(=O)(=O)NCc1ccccc1N1CCN(C(=O)COc2ccc3[nH]cc(CCN)c3c2)CC1 [N-[2-(4-{2-[3-(2-Amino-ethyl)-1H-indol-5-yloxy]-acetyl}-piperazin-1-yl)-benzyl]-methanesulfonamide] | 9.28
15 | CS(=O)(=O)NCc1ccc(N2CCN(C(=O)COc3ccc4[nH]cc(CCN)c4c3)CC2)cc1 [N-[4-(4-{2-[3-(2-Amino-ethyl)-1H-indol-5-yloxy]-acetyl}-piperazin-1-yl)-benzyl]-methanesulfonamide] | 8.66
16 | NCCc1c[nH]c2ccc(OCC(=O)N3CCN(c4ccc(NC(=O)c5ccccc5)cc4)CC3)cc12 [N-[4-(4-{2-[3-(2-Amino-ethyl)-1H-indol-5-yloxy]-acetyl}-piperazin-1-yl)-phenyl]-benzamide] | 8.89
17 | CS(=O)(=O)Nc1ccc(N2CCN(C(=O)COc3ccc4[nH]cc(CCN)c4c3)CC2)cc1 [N-[4-(4-{2-[3-(2-Amino-ethyl)-1H-indol-5-yloxy]-acetyl}-piperazin-1-yl)-phenyl]-methanesulfonamide] | 8.57
18 | CS(=O)(=O)Nc1ccc(N2CCN(C(=O)CCCCCOc3ccc4[nH]cc(CCN)c4c3)CC2)cc1 [N-[4-(4-{6-[3-(2-Amino-ethyl)-1H-indol-5-yloxy]-hexanoyl}-piperazin-1-yl)-phenyl]-methanesulfonamide] | 8.85
